One data set has as its target T1, human TRPV6 channels (Homo sapiens, UniProt Q9H1D0).
T1 construct: containing cDNA for the protein-coding region of TRPV6; expressed in transfected cells; host or cells: HEK-293 cells transiently transfected with pdi-CaT-L (pCAGGS backbone, gift of V. Flockerzi)
T1 sequence (Q9H1D0 41-765 limits assumed): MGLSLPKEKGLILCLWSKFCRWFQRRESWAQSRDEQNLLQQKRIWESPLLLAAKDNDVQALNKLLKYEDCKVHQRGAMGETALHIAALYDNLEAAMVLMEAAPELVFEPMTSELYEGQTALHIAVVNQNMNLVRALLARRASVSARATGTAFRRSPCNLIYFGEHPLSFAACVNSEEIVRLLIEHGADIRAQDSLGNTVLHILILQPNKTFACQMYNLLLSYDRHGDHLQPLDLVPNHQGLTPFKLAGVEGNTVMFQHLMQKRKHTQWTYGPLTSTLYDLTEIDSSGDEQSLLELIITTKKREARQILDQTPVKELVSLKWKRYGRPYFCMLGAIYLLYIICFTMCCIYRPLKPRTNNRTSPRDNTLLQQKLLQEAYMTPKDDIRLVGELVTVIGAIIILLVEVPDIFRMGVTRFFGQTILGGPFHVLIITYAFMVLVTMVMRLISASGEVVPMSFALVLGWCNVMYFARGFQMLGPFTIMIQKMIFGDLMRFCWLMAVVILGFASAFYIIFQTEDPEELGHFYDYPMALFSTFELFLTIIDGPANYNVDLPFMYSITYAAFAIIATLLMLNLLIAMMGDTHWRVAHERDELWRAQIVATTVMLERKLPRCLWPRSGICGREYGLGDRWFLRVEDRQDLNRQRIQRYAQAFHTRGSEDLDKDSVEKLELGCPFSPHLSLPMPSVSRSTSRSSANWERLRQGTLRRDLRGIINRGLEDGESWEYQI
Put plainly: whole-cell patch clamp of TRPV6/EGFP transfected HEK-293 cells. The note with it: for reduction of TRPV6 current amplitude / reduction of maximum TRPV6 current amplitude: p<0.05; for Kd: washout not possible under voltage ramp stimulation, Kd estimated, read-out: K1 (Kd estimated to be equal to K1); for reduction of maximum TRPV6 current amplitude: n = 5, successive exposures. Type of data set: cell-based. How it is done:
Human HEK-293 cells (6–9 passages) were plated in a 24-well plate at a density of 5×10^5 cells per well, 24 hours before transfection. Each well was diluted in serum-free medium and incubated for 5 minutes at room temperature then combined slowly and incubated at room temperature. After a 20 minute incubation, cells were exposed to the transfection complex consisting of 0.5 µg of pdi-CaT-L plasmid DNA (a gift from Dr. V. Flockerzi, Experimentelle und Klinische Pharmakologie und Toxikologie der Universität des Saarlandes) and 1.5 µl lipofectamine 2000 reagent. pdi-CaT-L is a bicistronic expression vector containing cDNA for the protein-coding region of TRPV6 and the mutated Green Fluorescent Protein (S65T; EGPF) separated by an […] (β-actin promoter /KOZAK/TRPV6/IRES/EGFP in pCAGGS). The IRES was derived from encephalomyocarditis virus. Transfection of HEK-293 cells with the bicistronic vector allows for simultaneous production of TRPV6 and EGFP and selection of fluorescent cells producing TRPV6 for the electrophysiology measurements. From previous investigations using this plasmid and other similar plasmids, it was determined that the TRPV6 channel is highly expressed, localized at the membrane surface, glycosylated and constitutively active giving rise to a Ca^2+-invoked inward current [33]–[35].
Whole-cell patch clamp recordings were performed on HEK-293 cells expressing TRPV6 and EGFP. Transfected cells were readily identified from non-transfected cells using a fluorescent Axiovert 135 microscope […]. The recordings were performed using an Axopatch 1D amplifier controlled and monitored using pClamp 9 software (MDS Analytical Technologies, Sunnyvale, CA, USA). Data sets were digitized at 20 kHz and filtered at 2 kHz. […] The extracellular solution contained: 145 mM NaCl, 10 mM CsCl, 10 mM CaCl2, 2 mM MgCl2, 2.8 mM KCl, 10 mM HEPES and 10 mM glucose with pH adjusted to 7.2 using NaOH.
To isolate TRPV6 currents, HEK-293 and transfected HEK-293 cells were voltage-clamped at +50 mV with a 50 ms linear voltage ramp (−110 mV to +90 mV) protocol applied in the presence or absence of a TRPV6 inhibitor, La^3+ ions (10 µM), SOR-C27, SOR-C13 or SOR-C27-Cy5.5. Although the La^3+ ion is a non-specific inhibitor there is currently no known selective inhibitor of the TRPV6 channel. The ramp was averaged over 10 times at 2 s intervals between ramps.
Analysis was performed off-line using IGOR (WaveMetrics Inc., Lake Oswego, OR, USA) software. The statistical significance was determined with paired Students' t-test (two-tailed). All values are expressed as mean ± SEM with a p-value of <0.05 considered significant.

A short description of data set [1]: solubility in NMR samples. Type of data set: physicochemical. As to conditions: 10 mM in 90/10 H2O/D2O, 50 mM potassium phosphate pH 6.6; with 200 mM NaCl; with 100 mM DPC; 2 mM with 100 mM SDS; visual statement, 274 to 308 K. The protocol: Nuclear magnetic resonance (NMR) spectroscopic data was acquired to determine the conformational structural features of the SOR-C27 peptide under various conditions. A stock solution (sample #1) of 10 mM SOR-C27 was prepared in 90/10 H2O/D2O with 50 mM potassium phosphate buffer at pH 6.6. From sample #1, three additional samples were prepared: #2) stock solution with 200 mM NaCl, #3) stock solution with 100 mM dodecylphosphocholine (DPC) and #4) stock solution diluted to 2 mM with 100 mM sodium dodecylsulfate (SDS).

Data set [2] concerns HEK-293 cells transfected with TRPV6. As to conditions: low doses; cited from earlier work. From the text: (§1) The link between tumor growth and over-expression of TRPV6 may involve the potentiation of calcium-dependent cell proliferation and inhibition of apoptosis. […] In the LNCaP prostate cancer cell line, up-regulation of TRPV6 augments proliferation and cell survival while retarding apoptosis through a mechanism that appears to involve activation of the nuclear factor of activated T-cell (NFAT) transcription ...

The subject of the next data set is TRPV6. The note with it: breast cancer cells; cited from earlier work.
Description: as §1

For data set [3] the following is noted: Table 1; no reference given; cited from earlier work. The text has this:
Table 1 Amino acid sequences of parent soricidin (accession number P0C2P6), SOR-C27 and SOR-C13. | column: Activity

In the next data set the test system is TRPV6 channels. The note with it: cited from earlier work. The text has this: Herein, we described the TRPV6 binding properties of SOR-C13 and SOR-C27 and the ability of these peptides to target human ovarian tumors in ...
Data set [4] has as its target T2, SOR-C13 (soricidin C-terminal peptide) (Blarina brevicauda).
T2 chain: KEFLHPSKVDLPR
Put plainly: whole-cell patch clamp. Background: The patch-clamp technique gives a direct electrical read-out from membranes.

In data set [5] the target is T3, SOR-C27 (soricidin C-terminal peptide) (Blarina brevicauda).
T3 chain: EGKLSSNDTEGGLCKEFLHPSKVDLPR
The data set is described as follows: whole-cell patch clamp.

Results on seven molecules are retold here after paper PMC3598914, “In Vivo Detection of Human TRPV6-Rich Tumors with Anti-Cancer Peptides Derived from Soricidin” (PLoS ONE, 2013).

“Also recorded” adds a separate entry of the source. Residues, ends and D or L forms follow the SMILES beside them.

Take `CC(C)C[C@H](NC(=O)[C@H](Cc1ccccc1)NC(=O)[C@H](CCC(=O)O)NC(=O)[C@@H](N)CCCCN)C(=O)N[C@@H](Cc1c[nH]cn1)C(=O)N1CCC[C@H]1C(=O)N[C@@H](CO)C(=O)N[C@@H](CCCCN)C(=O)N[C@H](C(=O)N[C@@H](CC(=O)O)C(=O)N[C@@H](CC(C)C)C(=O)N1CCC[C@H]1C(=O)N[C@@H](CCCNC(=N)N)C(=O)O)C(C)C` [SOR-C13] (H-KEFLHPSKVDLPR-OH): the “reduction of TRPV6 current amplitude” value amounted to 18±4.0% at human TRPV6 channels (83.5 nM, n = 9, mean ± SEM); 22±4% on human TRPV6 channels (417.5 nM, n = 9, mean ± SEM); 24±4% at human TRPV6 channels (835 nM, n = 7, mean ± SEM); 25±5% on human TRPV6 channels (25 µM, n = 7, mean ± SEM).

With `CC(C)C[C@H](NC(=O)[C@H](Cc1ccccc1)NC(=O)[C@H](CCC(=O)O)NC(=O)[C@@H](N)CCCCN)C(=O)N[C@@H](Cc1cnc[nH]1)C(=O)N1CCC[C@H]1C(=O)N[C@@H](CO)C(=O)N[C@@H](CCCCN)C(=O)N[C@H](C(=O)N[C@@H](CC(=O)O)C(=O)N[C@@H](CC(C)C)C(=O)N1CCC[C@H]1C(=O)N[C@@H](CCCNC(=N)N)C(=O)O)C(C)C` [SOR-C13] (H-KEFLHPSKVDLPR-OH), the Kd at human TRPV6 channels was 14 ± 1.3 nM.

`CC(C)C[C@H](NC(=O)CNC(=O)CNC(=O)[C@H](CCC(=O)O)NC(=O)[C@@H](NC(=O)[C@H](CC(=O)O)NC(=O)[C@H](CC(N)=O)NC(=O)[C@H](CO)NC(=O)[C@H](CO)NC(=O)[C@H](CC(C)C)NC(=O)[C@H](CCCCN)NC(=O)CNC(=O)[C@@H](N)CCC(=O)O)[C@@H](C)O)C(=O)N[C@@H](CS)C(=O)N[C@@H](CCCCN)C(=O)N[C@@H](CCC(=O)O)C(=O)N[C@@H](Cc1ccccc1)C(=O)N[C@@H](CC(C)C)C(=O)N[C@@H](Cc1c[nH]cn1)C(=O)N1CCC[C@H]1C(=O)N[C@@H](CO)C(=O)N[C@@H](CCCCN)C(=O)N[C@H](C(=O)N[C@@H](CC(=O)O)C(=O)N[C@@H](CC(C)C)C(=O)N1CCC[C@H]1C(=O)N[C@@H](CCCNC(=N)N)C(=O)O)C(C)C` [SOR-C27] (H-EGKLSSNDTEGGLCKEFLHPSKVDLPR-OH): the solubility result in data set [1] is “completely soluble in all solutions and under all conditions”. In addition, the “reduction of maximum TRPV6 current amplitude” value at human TRPV6 channels (65.2 nM, mean ± SEM) came to 17±4%; on human TRPV6 channels (326 nM, mean ± SEM) it was 27±5%; on human TRPV6 channels (652 nM, mean ± SEM), 31±5%; on human TRPV6 channels (20 µM, mean ± SEM), 34±5%. Moreover, the Kd at human TRPV6 channels was 65 ± 1 nM. Besides, the half-inhibitory concentration (IC50) on human TRPV6 channels (whole-cell patch clamp, 50 ms voltage ramp -110 to +90 mV, dose-response curve, mean ± SEM, b62/b63, read-out: IC50 (Kd) for reduction of TRPV6 current amplitude) stood at 65 ± 1 nM.

As for `Clc1ccc(COC(Cn2ccnc2)c2ccc(Cl)cc2Cl)cc1` (stereo not drawn) [econazole], the “effect on calcium inflow signals and cell proliferation” value in data set [2] is “reduced both calcium inflow signals and cell proliferation”.

In the case of `CC/C(=C(\c1ccccc1)c1ccc(OCCN(C)C)cc1)c1ccccc1` [tamoxifen], the “effect on TRPV6 expression and calcium signaling” value with TRPV6 is “reduces expression of TRPV6 and calcium signaling”.

For “DCSQDCAACSILARPAELNTETCILECEGKLSSNDTEGGLCKEFLHPSKVDLPR [Soricidin]”, the Activity entry in data set [3] is given as “Pain/ Cancer”. Further, the “inhibition of TRPV6 calcium channels / calcium uptake” value in the data set with TRPV6 channels was “found to inhibit the transient receptor potential of vallinoid type 6 (TRPV6) calcium channels; also recorded: inhibit calcium uptake via TRPV6 channels”.

B1: TRPV6 (protein)
chain: MGPLQGDGGPALGGADVAPRLSPVRVWPRPQAPKEPALHPMGLSLPKEKGLILCLWSKFCRWFQRRESWAQSRDEQNLLQQKRIWESPLLLAAKDNDVQALNKLLKYEDCKVHQRGAMGETALHIAALYDNLEAAMVLMEAAPELVFEPMTSELYEGQTALHIAVVNQNMNLVRALLARRASVSARATGTAFRRSPCNLIYFGEHPLSFAACVNSEEIVRLLIEHGADIRAQDSLGNTVLHILILQPNKTFACQMYNLLLSYDRHGDHLQPLDLVPNHQGLTPFKLAGVEGNTVMFQHLMQKRKHTQWTYGPLTSTLYDLTEIDSSGDEQSLLELIITTKKREARQILDQTPVKELVSLKWKRYGRPYFCMLGAIYLLYIICFTMCCIYRPLKPRTNNRTSPRDNTLLQQKLLQEAYMTPKDDIRLVGELVTVIGAIIILLVEVPDIFRMGVTRFFGQTILGGPFHVLIITYAFMVLVTMVMRLISASGEVVPMSFALVLGWCNVMYFARGFQMLGPFTIMIQKMIFGDLMRFCWLMAVVILGFASAFYIIFQTEDPEELGHFYDYPMALFSTFELFLTIIDGPANYNVDLPFMYSITYAAFAIIATLLMLNLLIAMMGDTHWRVAHERDELWRAQIVATTVMLERKLPRCLWPRSGICGREYGLGDRWFLRVEDRQDLNRQRIQRYAQAFHTRGSEDLDKDSVEKLELGCPFSPHLSLPMPSVSRSTSRSSANWERLRQGTLRRDLRGIINRGLEDGESWEYQI
For the molecule B1, the values for the Kd in data set [4] and in data set [5] were 14 nM and 65 nM, respectively.

The term Kd denotes the constant that tells how readily two partners part at equilibrium. For orientation: IC50 means the concentration that gives 50% inhibition.
